Source: patent publication US20250108119A1, “NOVEL STEROID PAYLOADS, STEROID LINKERS, ADCs CONTAINING AND USE THEREOF” (IMMUNEXT, INC., priority 2021, published 2025)

What was measured:
human PBMC = test: Cytokine production (IL-1β, IL-6) at 24 hr by human PBMC incubated with 1 ng/mL LPS; format: cell-based; settings: free steroid payloads, serial dilutions, 1 ng/mL LPS, 24 hr
Description: (§1) FIG. 51: INX-SM-3, INX-SM-4, and INX-SM-1 inhibit IL-1β (left) and IL-6 (right) production. Cytokine levels were measured at 24 hr for human PBMCS incubated with 1 ng/mL LPS and serial dilutions (1000-1 nM) of steroid payloads, with the no treatment control plotted on the log-scale x-axis at <1 nM; n=1 donor, standard deviation plotted from technical duplicates.
as §1, with “52: INX-SM-1,” for “51:”, “INX-SM-4” for “INX-SM-4,”, “INX-SM-6” for “INX-SM-1”, “IL-1β” for “IL-1β (left) and IL-6 (right)”, “levels” for “levels were”, “ng/ml” for “ng/mL”
(§2) FIG. 53: INX-SM-9, INX-SM-31 and INX-SM-35 inhibit IL-1β (top) and IL-6 (bottom) production. Cytokine levels measured at 24 hr for human PBMCS incubated with 1 ng/mL LPS and serial dilutions (1000-0.2 nM) of steroid payloads, with the no treatment control plotted on the log-scale x-axis at <0.2 nM; n=2 donors-representative donor shown. Standard deviation plotted from technical duplicates.
as §2, with “54: INX-SM-32 inhibits” for “53: INX-SM-9, INX-SM-31 and INX-SM-35 inhibit”, “(500-1” for “(1000-0.2”, “<1” for “<0.2”, “n=2. Representative” for “n=2 donors-representative”
Cytokine levels measured at 24 hr for human PBMCS incubated with 1 ng/ml LPS and serial dilutions (1000-0.5 nM) of steroid payloads, with the no treatment control plotted on the log-scale x-axis at <0.5 nM; n=1 donor, standard deviation plotted from technical duplicates.
FIG. 56: INX-SM-2 and INX-SM-7 show inhibition in IL-1β. Average Cytokine levels measured at 24 hr for human PBMCS incubated with 1 ng/ml LPS and serial dilutions (1000-0.16 nM) of steroid payloads, with the no treatment control plotted on the log-scale x-axis at <0.16 nM; n=1, standard deviation plotted from technical duplicates. […]
Average cytokine levels measured at 24 hr for human PBMC incubated with 1 ng/ml LPS and serial dilutions (100-0.032 nM) of glucocorticoid payloads; n=1, mean of technical duplicates.
Average cytokine levels measured at 24 hr for human PBMC incubated with 1 ng/mL LPS and serial dilutions (1000-0.32 nM) of glucocorticoid payloads; n=1, mean of technical duplicates.
Cytokine levels measured at 24 hr for human PBMC incubated with 1 ng/mL LPS and serial dilutions (1000-0.5 nM) of steroid payloads, with the no treatment control plotted on the log-scale x-axis at <0.5 nM; n=1 donor, mean of technical duplicates plotted.
Average cytokine levels for A. hull-1β B. huIL-6 measured at 24 hr for human PBMC incubated with 1 ng/mL LPS and serial dilutions (1000-0.16 nM) of conjugated steroid linker payloads, with the no treatment control plotted on the log-scale x-axis at <0.16 nM; n=1, standard deviation plotted from technical duplicates. Values above the ULOQ (12,500 pg/mL for IL-1b and 150,000 pg/mL for IL-6) were plotted as the extrapolated value.
Average cytokine levels for IL-1β measured at 24 hr for human PBMC incubated with 1 ng/mL LPS and serial dilutions (1000-0.16 nM) of conjugated steroid linker payloads, with the no treatment control plotted on the log-scale x-axis at <0.16 nM; n=1, mean plotted of technical duplicates
Average cytokine levels for IL-1β measured at 24 hr for human PBMC incubated with 1 ng/mL LPS and serial dilutions (1000-0.16 nM) of conjugated steroid linker payloads, with the no treatment control plotted on the log-scale x-axis at <0.16 nM; n=1, mean plotted of technical duplicates.
FIG. 66: Analogs of INX V are potent relative to INX231J. […]

[1] = system: LPS stimulated human PBMCs; test: LPS stimulated human PBMC, IL-1β and IL-6 ELISA; format: cell-based; settings: for inhibition of huIL1-β: Experiment 7: free payload, INX-SM-43 100-0.032 nM, INX-SM-44 1000-0.32 nM
Description: The potency of novel steroids was assessed in a model of LPS stimulated human peripheral blood mononuclear cells (PBMCS). Stimulated PBMCs in this assay produce multiple pro-inflammatory cytokines1.
In all the following experiments, human PBMC, isolated from 1-2 healthy donors per study, were stimulated with LPS to induce cytokine production.
LPS was added either immediately after addition of free payload, or in the case of conjugates, four hours after addition of the conjugate.
Cells were plated in flat bottom 96 well plates at a final concentration of 150,000 cells/well, with technical duplicates for each condition.
Test agents were serially diluted in the assay media and added to a final concentration of 1,000 nM-1 nM or 0.2 nM depending on the assay or as a no treatment control.
LPS stimulation was added to a final concentration of 1 ng/ml.
Human IL-1β and IL-6 ELISA kits were used on supernatants according to vendor protocols. All graphs were prepared with GraphPad (Prism).

Row | SMILES | inhibition of IL-1β production (human PBMC) | inhibition of IL-6 production (human PBMC) | also measured
1 | CNC1CC(Cc2ccc([C@@H]3O[C@@H]4C[C@H]5[C@@H]6CCC7=CC(=O)C=C[C@]7(C)[C@H]6[C@@H](O)C[C@]5(C)[C@]4(C(=O)CO)O3)cc2)C1 (stereo partly drawn) [INX-SM-49, (6aR,6bS,7S,8aS,8bS,10R,11aR,12aS,12bS)-7-hydroxy-8b-(2-hydroxyacetyl)-6a,8a-dimethyl-10-(4-((3-(methylamino)cyclobutyl)methyl)phenyl)-1,2,6a,6b,7,8,8a,8b,11a,12,12a,12b-dodecahydro-4H-naphtho[2′,1′:4,5]indeno[1,2-d][1,3]dioxol-4-one] | weakly inhibit | weakly inhibit | inhibition of IL-1β and IL-6 ([1]; Experiment 12: free payloads 1000-0.15 nM): weakly inhibit IL-1β and IL-6
2 | C[C@]12C=CC(=O)C=C1CC[C@@H]1[C@@H]2[C@@H](O)C[C@@]2(C)[C@H]1C[C@H]1O[C@@H](c3ccc(OC4CC5(CC(N)C5)C4)cc3F)O[C@]12C(=O)CO (stereo partly drawn) [INX-SM-44, (6aR,6bS,7S,8aS,8bS,10R,11aR,12aS,12bS)-10-(4-((6-aminospiro[3.3]heptan-2-yl)oxy)-2-fluorophenyl)-7-hydroxy-8b-(2-hydroxyacetyl)-6a,8a-dimethyl-1,2,6a,6b,7,8,8a,8b,11a,12,12a,12b-dodecahydro-4H-naphtho[2′,1′:4,5]indeno[1,2-d][1,3]dioxol-4-one] | moderate inhibition |  | inhibition of huIL1-β [1]: moderate inhibition of huIL1-β
3 | C[C@]12C=CC(=O)C=C1CC[C@@H]1[C@@H]2[C@@H](O)C[C@@]2(C)[C@H]1C[C@H]1O[C@@H](c3ccc(CC4CC5(CC(N)C5)C4)cc3)O[C@]12C(=O)CO (stereo partly drawn) [INX-SM-32, (6aR,6bS,7S,8aS,8bS,10R,11aR,12aS,12bS)-10-(4-((6-aminospiro[3.3]heptan-2-yl)methyl)phenyl)-7-hydroxy-8b-(2-hydroxyacetyl)-6a,8a-dimethyl-1,2,6a,6b,7,8,8a,8b,11a,12,12a,12b-dodecahydro-4H-naphtho[2′,1′:4,5]indeno[1,2-d][1,3]dioxol-4-one] | inhibits | inhibits | inhibition of IL-1β and IL-6 production ([1]; Experiment 4: free payload 500-1 nM, 24 hr, n=2): dose dependent inhibition in IL-1β and IL-6 production
4 | C[C@]12C=CC(=O)C=C1CC[C@@H]1[C@@H]2[C@@H](O)C[C@@]2(C)[C@H]1C[C@H]1O[C@@H](c3ccc(CC4(N)CC(F)(F)C4)cc3)O[C@]12C(=O)CO [INX-SM-35, (6aR,6bS,7S,8aS,8bS,10R,11aR,12aS,12bS)-10-(4-((1-amino-3,3-difluorocyclobutyl)methyl)phenyl)-7-hydroxy-8b-(2-hydroxyacetyl)-6a,8a-dimethyl 1,2,6a,6b,7,8,8a,8b,11a,12,12a,12b-dodecahydro-4H-naphtho[2′,1′:4,5]indeno[1,2-d][1,3]dioxol-4-one] | inhibit | inhibit | inhibition of IL-1β production ([1]; Experiment 3: free payload 1000-0.2 nM, 24 hr, n=2 donors): dose dependent inhibition in IL-1β production
5 | C[C@]12C=CC(=O)C=C1CC[C@@H]1[C@@H]2[C@@H](O)C[C@@]2(C)[C@H]1C[C@H]1O[C@@H](c3ccc(Cc4cnc(N)s4)cc3)O[C@]12C(=O)CO [INX-SM-1, (6aR,6bS,7S,8aS,8bS,10R,11aR,12aS,12bS)-10-(4-((2-aminothiazol-5-yl)methyl)phenyl)-7-hydroxy-8b-(2-hydroxyacetyl)-6a,8a-dimethyl-1,2,6a,6b,7,8,8a,8b,11a,12,12a,12b-dodecahydro-4H-naphtho[2′,1′:4,5]indeno[1,2-d][1,3]dioxol-4-one] | inhibit | inhibit | inhibition of IL-1β and IL-6 production ([1]; Experiment 1: free payload 1000-1 nM, 1 ng/ml LPS, 24 hr, n=1 donor): inhibit both IL-1β and IL-6 production; inhibition of IL-1β production ([1]; Experiment 2: free payload 1000-1 nM, 24 hr, n=1 donor): show inhibition in IL-1β production
6 | C[C@]12C=CC(=O)C=C1CC[C@@H]1[C@@H]2[C@@H](O)C[C@@]2(C)[C@H]1C[C@H]1O[C@@H](c3ccc(OC4CC5(CC(N)C5)C4)cc3)O[C@]12C(=O)CO (stereo partly drawn) [INX-SM-43, (6aR,6bS,7S,8aS,8bS,10R,11aR,12aS,12bS)-10-(4-((6-aminospiro[3.3]heptan-2-yl)oxy)phenyl)-7-hydroxy-8b-(2-hydroxyacetyl)-6a,8a-dimethyl-1,2,6a,6b,7,8,8a,8b,11a,12, 12a,12b-dodecahydro-4H-naphtho[2′,1′:4,5]indeno[1,2-d][1,3]dioxol-4-one] | moderate inhibition |  | inhibition of huIL1-β [1]: moderate inhibition of huIL1-β
7 | C[C@]12C=CC(=O)C=C1CC[C@@H]1[C@@H]2[C@@H](O)C[C@@]2(C)[C@H]1C[C@H]1O[C@@H](c3ccc(Cc4csc(N)n4)cc3)O[C@]12C(=O)CO [INX-SM-2, (6aR,6bS,7S,8aS,8bS,10R,11aR,12aS,12bS)-10-(4-((2-aminothiazol-4-yl)methyl)phenyl)-7-hydroxy-8b-(2-hydroxyacetyl)-6a,8a-dimethyl-1,2,6a,6b,7,8,8a,8b,11a,12,12a,12b-dodecahydro-4H-naphtho[2′,1′:4,5]indeno[1,2-d][1,3]dioxol-4-one] | inhibition |  | inhibition of IL-1β production ([1]; Experiment 6: free payload 1000-0.16 nM, 24 hr): dose-dependent inhibition in IL-1β production
8 | C[C@]12C=CC(=O)C=C1CC[C@@H]1[C@@H]2[C@@H](O)C[C@@]2(C)[C@H]1C[C@H]1O[C@@H](c3ccc(CC4CC(N)C45CCC5)cc3)O[C@]12C(=O)CO (stereo partly drawn) [INX-SM-45, (6aR,6bS,7S,8aS,8bS,10R,11aR,12aS,12bS)-10-(4-((3-aminospiro[3.3]heptan-1-yl)methyl)phenyl)-7-hydroxy-8b-(2-hydroxyacetyl)-6a,8a-dimethyl-1,2,6a,6b,7,8,8a,8b,11a,12,12a,12b-dodecahydro-4H-naphtho[2′,1′:4,5]indeno[1,2-d][1,3]dioxol-4-one 2,2,2-trifluoroacetate] | more modest inhibition |  | inhibition of IL-1β production ([1]; Experiment 8: free payload 1000-0.5 nM): more modest inhibition of cytokine production
